Drawing on patent publication US12577227B2, “WDR5 inhibitors and modulators” (Vanderbilt University, priority 2019, dated 2026), this text covers GI50 for 23 molecules.

In this experiment the test system is MV4:11 human cancer cell lines. Kind of experiment: Cellular viability / anti-proliferative activity (CellTiter-Glo). The experiment is classed as cell-based. Conditions: MV4-11, 120 h, MV-4-11 cells, 5 day protocol, mean of minimum two replicates, read-out: GI50 on cellular proliferation of MV4:11 human cancer cell lines. How it is done: Cellular Viability of Human Tumor Cell Lines
Anti-Proliferative Activity Using MLL-Harboring Cell Lines.
MV-4-11 and K562 cells are grown in IMDM media supplemented with 10% FBS and […], Molm-13 cells are cultured in RPMI-1640 media supplemented with 10% FBS and 1% o penicillin/streptomycin. Viability assays are performed by dispensing 200 cells at 7200 cells/mL into each well of an opaque 384-well plate and adding compounds at the indicated concentrations in a final volume of 32 μL and a final concentration of DMSO of 0.3% for all samples. A certain range of compound concentrations is made through a series of 2-fold dilutions starting 30 μM at the highest, total 22 dilutions. After a set incubation period, 5 day protocol, the viability of cells in each well is assessed using the CellTiter-Glo assay (Promega), read on a 96 Microplane Luminometer (Cytation 3, BioTek). Serial dilutions of each cell type are performed in all assays to generate standard curves and the final densities of cells are determined within the dynamic range of the instrument. GI50 values are calculated based on XLfit software (IDBS, Guildford, UK) with Sigmoidal Dose-Response Model. Each compound is tested in minimum of two replicates. Data are expressed as mean.

On to `COc1ccnc([C@H](C)N2CCOc3c(cc(Cn4ccnc4C)cc3-c3ccc(F)cc3C)C2=O)c1` [Example 50, (S)-9-(4-Fluoro-2-methylphenyl)-4-(1-(4-methoxypyridin-2-yl)ethyl)-7-((2-methyl-1H-imidazol-1-yl)methyl)-3,4-dihydrobenzo[f][1,4]oxazepin-5(2H)-one], for which the GI50 turned out to be 50 nM.
The result for `Cc1cc(C)nc(CN2CCOc3c(cc(Cn4ccnc4C)cc3-c3cc(C)c(F)cc3C)C2=O)c1` [Example 51, 4-((4,6-Dimethylpyridin-2-yl)methyl)-9-(4-fluoro-2,5-dimethylphenyl)-7-((2-methyl-1H-imidazol-1-yl)methyl)-3,4-dihydrobenzo[f][1,4]oxazepin-5(2H)-one] reads 79 nM.
The same measure for `Cc1cc(C)nc(CN2CCOc3c(cc(Cn4ccnc4C)cc3-c3cc(Cl)ccc3C)C2=O)c1` [Example 52, 9-(5-Chloro-2-methylphenyl)-4-((4,6-dimethylpyridin-2-yl)methyl)-7-((2-methyl-1H-imidazol-1-yl)methyl)-3,4-dihydrobenzo[f][1,4]oxazepin-5(2H)-one]: 63 nM; for `COc1ccnc([C@H](C)N2CCOc3c(cc(Cn4cnn(C)c4=N)cc3-c3cn(C)nc3C(F)(F)F)C2=O)c1` [Example 53, (S)-7-((5-Imino-1-methyl-1,5-dihydro-4H-1,2,4-triazol-4-yl)methyl)-4-(1-(4-methoxypyridin-2-yl)ethyl)-9-(1-methyl-3-(trifluoromethyl)-1H-pyrazol-4-yl)-3,4-dihydrobenzo[f][1,4]oxazepin-5(2H)-one]: 67 nM.
The same measure for `COc1ccnc([C@H](C)N2CCOc3c(cc(Cn4cnn(C)c4=N)cc3-c3ccc(F)cc3Cl)C2=O)c1` [Example 54, (S)-9-(2-Chloro-4-fluorophenyl)-7-((5-imino-1-methyl-1,5-dihydro-4H-1,2,4-triazol-4-yl)methyl)-4-(1-(4-methoxypyridin-2-yl)ethyl)-3,4-dihydrobenzo[f][1,4]oxazepin-5(2H)-one]: 9 nM; for `COc1ccnc(Cn2cnc3c(-c4cn(C)nc4C(F)(F)F)cc(Cn4ccnc4C)cc3c2=O)c1` [Example 55, 3-((4-Methoxypyridin-2-yl)methyl)-6-((2-methyl-1H-imidazol-1-yl)methyl)-8-(1-methyl-3-(trifluoromethyl)-1H-pyrazol-4-yl)quinazolin-4(3H)-one]: 570 nM.
Consider `COc1ccnc([C@H](C)N2CCOc3c(cc(Cn4ccnc4C)cc3-c3cc(C)ccc3C)C2=O)c1` [Example 56, (S)-9-(2,5-Dimethylphenyl)-4-(1-(4-methoxypyridin-2-yl)ethyl)-7-((2-methyl-1H-imidazol-1-yl)methyl)-3,4-dihydrobenzo[f][1,4]oxazepin-5(2H)-one], for which the GI50 worked out at 37 nM.
The result for `COc1ccc2c(c1)C(N1CCOc3c(cc(Cn4ccnc4C)cc3-c3cn(C)nc3C(F)(F)F)C1=O)CCC2` (centres unmarked) [Example 57, 4-(7-Methoxy-1,2,3,4-tetrahydronaphthalen-1-yl)-7-((2-methyl-1H-imidazol-1-yl)methyl)-9-(1-methyl-3-(trifluoromethyl)-1H-pyrazol-4-yl)-3,4-dihydrobenzo[f][1,4]oxazepin-5(2H)-one] reads 29 nM; that for `COc1ccc2nccc(N3CCOc4c(cc(Cn5ccnc5C)cc4-c4cn(C)nc4C(F)(F)F)C3=O)c2c1` [Example 58, 4-(6-Methoxyquinolin-4-yl)-7-((2-methyl-1H-imidazol-1-yl)methyl)-9-(1-methyl-3-(trifluoromethyl)-1H-pyrazol-4-yl)-3,4-dihydrobenzo[f][1,4]oxazepin-5(2H)-one], 77 nM.
The same measure for `CCn1cc(-c2cc(Cn3ccnc3)cc3c2OCCN([C@H](c2cc(OC)ccn2)C2CC2)C3=O)c(C(F)(F)F)n1` [Example 59, (S)-7-((1H-Imidazol-1-yl)methyl)-4-(cyclopropyl(4-methoxypyridin-2-yl)methyl)-9-(1-ethyl-3-(trifluoromethyl)-1H-pyrazol-4-yl)-3,4-dihydrobenzo[f][1,4]oxazepin-5(2H)-one]: 108 nM; for `CCn1cc(-c2cc(Cn3ccnc3C)cc3c2OCCN([C@H](c2cc(OC)ccn2)C2CC2)C3=O)c(C(F)(F)F)n1` [Example 60, (S)-4-(Cyclopropyl(4-methoxypyridin-2-yl)methyl)-9-(1-ethyl-3-(trifluoromethyl)-1H-pyrazol-4-yl)-7-((2-methyl-1H-imidazol-1-yl)methyl)-3,4-dihydrobenzo[f][1,4]oxazepin-5(2H)-one]: 111 nM; for `CCc1nccn1Cc1cc2c(c(-c3cn(CC)nc3C(F)(F)F)c1)OCCN([C@H](c1cc(OC)ccn1)C1CC1)C2=O` [Example 61, (S)-4-(Cyclopropyl(4-methoxypyridin-2-yl)methyl)-7-((2-ethyl-1H-imidazol-1-yl)methyl)-9-(1-ethyl-3-(trifluoromethyl)-1H-pyrazol-4-yl)-3,4-dihydrobenzo[f][1,4]oxazepin-5(2H)-one]: 158 nM.
The same measure for `CCn1cc(-c2cc(Cn3ccnc3)cc3c(=O)n([C@H](c4cc(OC)ccn4)C4CC4)cnc23)c(C(F)(F)F)n1` [Example 62, (S)-6-((1H-imidazol-1-yl)methyl)-3-(cyclopropyl(4-methoxypyridin-2-yl)methyl)-8-(1-ethyl-3-(trifluoromethyl)-1H-pyrazol-4-yl)quinazolin-4(3H)-one]: 1380 nM; for `CCn1cc(-c2cc(Cn3ccnc3)cc3c2OCCN([C@H]2CCOc4ccc(OC)cc42)C3=O)c(C(F)(F)F)n1` [Example 63, (S)-7-((1H-imidazol-1-yl)methyl)-9-(1-ethyl-3-(trifluoromethyl)-1H-pyrazol-4-yl)-4-(6-methoxychroman-4-yl)-3,4-dihydrobenzo[f][1,4]oxazepin-5(2H)-one]: 70 nM; for `CCn1cc(-c2cc(Cn3ccnc3C)cc3c2OCCN([C@H]2CCOc4ccc(OC)cc42)C3=O)c(C(F)(F)F)n1` [Example 64, (S)-9-(1-ethyl-3-(trifluoromethyl)-1H-pyrazol-4-yl)-4-(6-methoxychroman-4-yl)-7-((2-methyl-1H-imidazol-1-yl)methyl)-3,4-dihydrobenzo[f][1,4]oxazepin-5(2H)-one]: 39 nM.
As to `CCn1cc(-c2cc(Cn3ccnc3)cc3c2NC(=O)CN([C@H](c2cc(OC)ccn2)C2CC2)C3=O)c(C(F)(F)F)n1` [Example 65, (S)-7-((1H-imidazol-1-yl)methyl)-4-(cyclopropyl(4-methoxypyridin-2-yl)methyl)-9-(1-ethyl-3-(trifluoromethyl)-1H-pyrazol-4-yl)-3,4-dihydro-1H-benzo[e][1,4]diazepine-2,5-dione], the GI50 turned out to be 290 nM.
In the case of `CCOC(=O)c1cc(CC)cc2c(N3CCOc4c(cc(Cn5ccnc5)cc4-c4cn(C)nc4C(F)(F)F)C3=O)ccnc12` [Example 66, Ethyl 4-(7-((1H-imidazol-1-yl)methyl)-9-(1-methyl-3-(trifluoromethyl)-1H-pyrazol-4-yl)-5-oxo-2,3-dihydrobenzo[f][1,4]oxazepin-4(5H)-yl)-6-ethylquinoline-8-carboxylate], the GI50 was determined as 772 nM.
The result for `CCc1cc(OC)c2nccc(N3CCOc4c(cc(Cn5ccnc5)cc4-c4cn(C)nc4C(F)(F)F)C3=O)c2c1` [Example 67, 7-((1H-imidazol-1-yl)methyl)-4-(6-ethyl-8-methoxyquinolin-4-yl)-9-(1-methyl-3-(trifluoromethyl)-1H-pyrazol-4-yl)-3,4-dihydrobenzo[f][1,4]oxazepin-5(2H)-one] reads 321 nM; that for `COc1ccc2nc(C)cc(N3CCOc4c(cc(Cn5ccnc5)cc4-c4cn(C)nc4C(F)(F)F)C3=O)c2c1` [Example 68, 7-((1H-imidazol-1-yl)methyl)-4-(6-methoxy-2-methylquinolin-4-yl)-9-(1-methyl-3-(trifluoromethyl)-1H-pyrazol-4-yl)-3,4-dihydrobenzo[f][1,4]oxazepin-5(2H)-one], 100 nM; that for `COc1cc(OC)c2nc(C)cc(N3CCOc4c(cc(Cn5ccnc5)cc4-c4cn(C)nc4C(F)(F)F)C3=O)c2c1` [Example 69, 7-((1H-imidazol-1-yl)methyl)-4-(6,8-dimethoxy-2-methylquinolin-4-yl)-9-(1-methyl-3-(trifluoromethyl)-1H-pyrazol-4-yl)-3,4-dihydrobenzo[f][1,4]oxazepin-5(2H)-one], 39 nM.
The same measure for `COc1cnc2cccc(N3CCOc4c(cc(Cn5ccnc5)cc4-c4cn(C)nc4C(F)(F)F)C3=O)c2c1` [Example 70, 7-((1H-imidazol-1-yl)methyl)-4-(3-methoxyquinolin-5-yl)-9-(1-methyl-3-(trifluoromethyl)-1H-pyrazol-4-yl)-3,4-dihydrobenzo[f][1,4]oxazepin-5(2H)-one]: 306 nM; for `CCc1cc(C(=O)NC)c2nccc(N3CCOc4c(cc(Cn5ccnc5)cc4-c4cn(C)nc4C(F)(F)F)C3=O)c2c1` [Example 72, 4-(7-((1H-imidazol-1-yl)methyl)-9-(1-methyl-3-(trifluoromethyl)-1H-pyrazol-4-yl)-5-oxo-2,3-dihydrobenzo[f][1,4]oxazepin-4(5H)-yl)-6-ethyl-N-methylquinoline-8-carboxamide]: 494 nM; for `CCc1cc(C(=O)NCCN(C)C)c2nccc(N3CCOc4c(cc(Cn5ccnc5)cc4-c4cn(C)nc4C(F)(F)F)C3=O)c2c1` [Example 73, 4-(7-((1H-imidazol-1-yl)methyl)-9-(1-methyl-3-(trifluoromethyl)-1H-pyrazol-4-yl)-5-oxo-2,3-dihydrobenzo[f][1,4]oxazepin-4(5H)-yl)-N-(2-(dimethylamino)ethyl)-6-ethylquinoline-8-carboxamide]: 255 nM.
